Data taken from paper PMC2778829, “Functional Characterization of the Canine Heme-Regulated eIF2α Kinase: Regulation of Protein Synthesis” (Advances in Hematology, 2009).

Tests used:
Type in all cases: biochemical
[1] = biological target: T1, canine heme-regulated inhibitor (HRI), heme-regulated eIF2α kinase (Canis lupus, UniProt C4PB17); assay: AlphaScreen kinase assay with purified HRI, biotinylated Poly-GT substrate, […] ATP
T1 construct: full-length HRI, His6-tagged, expressed in Sf9 cells

[2] = biological target: T2, mouse heme-regulated inhibitor (HRI), heme-regulated eIF2α kinase (Mus musculus, UniProt Q9Z2R9); assay: in-vitro kinase assay (AlphaScreen) with purified HRI
T2 construct: gene Eif2ak1; expressed in Sf9 cells, purified by Ni-NTA
T2 sequence (Q9Z2R9 whole entry): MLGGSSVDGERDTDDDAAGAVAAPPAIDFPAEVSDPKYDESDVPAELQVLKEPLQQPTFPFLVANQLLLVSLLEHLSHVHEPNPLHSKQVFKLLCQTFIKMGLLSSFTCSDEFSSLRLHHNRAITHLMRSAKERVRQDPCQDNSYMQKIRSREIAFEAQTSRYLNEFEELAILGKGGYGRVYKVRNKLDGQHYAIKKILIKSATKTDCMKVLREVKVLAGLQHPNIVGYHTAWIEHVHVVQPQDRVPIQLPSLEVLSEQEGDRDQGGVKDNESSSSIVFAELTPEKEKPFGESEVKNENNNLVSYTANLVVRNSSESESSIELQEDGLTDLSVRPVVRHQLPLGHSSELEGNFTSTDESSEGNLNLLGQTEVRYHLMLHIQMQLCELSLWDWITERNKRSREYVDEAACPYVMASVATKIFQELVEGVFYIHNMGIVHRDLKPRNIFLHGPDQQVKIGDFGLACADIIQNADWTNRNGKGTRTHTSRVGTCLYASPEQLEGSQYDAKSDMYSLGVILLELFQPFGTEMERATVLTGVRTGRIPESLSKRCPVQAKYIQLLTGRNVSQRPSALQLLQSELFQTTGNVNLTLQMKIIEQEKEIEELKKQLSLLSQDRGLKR

[3] = biological target: T3, human heme-regulated inhibitor (HRI), heme-regulated eIF2α kinase (Homo sapiens, UniProt Q9BQI3); assay: as above
T3 construct: gene EIF2AK1; expressed in Sf9 cells, purified by Ni-NTA
T3 sequence (Q9BQI3 whole entry): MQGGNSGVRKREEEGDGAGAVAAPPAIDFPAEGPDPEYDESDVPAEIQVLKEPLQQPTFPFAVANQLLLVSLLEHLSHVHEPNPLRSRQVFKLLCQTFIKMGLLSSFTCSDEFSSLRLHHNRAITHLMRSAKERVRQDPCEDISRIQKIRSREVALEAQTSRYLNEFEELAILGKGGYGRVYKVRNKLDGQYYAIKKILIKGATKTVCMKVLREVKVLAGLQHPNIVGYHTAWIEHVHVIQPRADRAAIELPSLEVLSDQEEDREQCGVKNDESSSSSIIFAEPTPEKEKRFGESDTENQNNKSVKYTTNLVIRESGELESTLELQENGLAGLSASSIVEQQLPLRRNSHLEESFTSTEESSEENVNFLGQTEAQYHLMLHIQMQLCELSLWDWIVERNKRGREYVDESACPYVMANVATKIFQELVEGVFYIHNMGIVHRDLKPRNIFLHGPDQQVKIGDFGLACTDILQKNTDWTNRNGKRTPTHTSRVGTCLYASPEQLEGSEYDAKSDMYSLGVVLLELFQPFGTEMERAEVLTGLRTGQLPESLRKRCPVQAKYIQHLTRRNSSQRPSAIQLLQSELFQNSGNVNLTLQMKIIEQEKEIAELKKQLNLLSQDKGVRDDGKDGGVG

Measured: IC50

T1 sequence (C4PB17 1-630): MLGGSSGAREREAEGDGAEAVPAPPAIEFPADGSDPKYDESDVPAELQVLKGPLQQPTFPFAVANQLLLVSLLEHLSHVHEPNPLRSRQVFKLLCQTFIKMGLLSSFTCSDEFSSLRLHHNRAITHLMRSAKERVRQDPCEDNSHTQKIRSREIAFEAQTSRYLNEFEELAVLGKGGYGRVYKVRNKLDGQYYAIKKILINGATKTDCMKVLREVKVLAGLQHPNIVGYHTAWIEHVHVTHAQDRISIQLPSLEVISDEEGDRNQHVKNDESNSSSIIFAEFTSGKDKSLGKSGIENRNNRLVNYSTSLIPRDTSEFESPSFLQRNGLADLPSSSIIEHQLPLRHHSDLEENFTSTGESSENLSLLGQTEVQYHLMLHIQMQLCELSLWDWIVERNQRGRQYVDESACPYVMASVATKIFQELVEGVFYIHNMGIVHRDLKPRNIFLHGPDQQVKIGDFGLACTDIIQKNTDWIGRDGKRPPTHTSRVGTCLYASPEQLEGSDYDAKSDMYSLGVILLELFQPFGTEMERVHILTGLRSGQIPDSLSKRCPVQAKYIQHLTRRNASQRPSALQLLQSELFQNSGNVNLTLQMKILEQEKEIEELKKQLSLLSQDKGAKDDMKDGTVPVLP

O=c1c(O)c(-c2ccc(O)c(O)c2)oc2cc(O)cc(O)c12 [quercetin, 3,3′,4′,5,7-pentahydroxyflavone]
~1000 nM: all assays above
